# Results reported in patent US11918571B2, “Compounds and their methods of use” (Praxis Precision Medicines, Inc., priority 2017, dated 2024).
# Target: T1, human Nav1.6 (hNav1.6) (Homo sapiens, UniProt Q9UQD0)
# T1 construct: expressed in transfected cells; host or cells: HEK-293 (G418 selection)
# Test: Modulation of late sodium current (INaL), PatchXpress electrophysiology, ATX-II evoked
# Type: cell-based
# Details: HEK293; 1 μM compound; HEK-293 cells expressing recombinant human Nav1.6; late current evoked by 300 nM ATX-II; read-out: INaL v1.6 (1 μM, % Inhibition)
# Procedure: Functional characterization of exemplary compounds to modulate INaL expressed by the Nav1.6 voltage-gated sodium channel was accomplished using the PatchXpress™ high throughput electrophysiology platform (Molecular Devices, Sunnyvale, CA). HEK-293 cells expressing recombinant, human Nav1.6 (hNav1.6) were grown in DMEM/high-glucose Dulbecco's modified, 10% FBS, 2 mM sodium pyruvate, 10 mM HEPES and 400 μg/mL G418. Cells were grown to 50%-80% confluency prior to harvesting. Trypsinized cells were washed, allowed to recover for 1 hour and then resuspended in extracellular recording solution at a concentration of 1×10^6 cells/ml. The onboard liquid handling facility of the PatchXpress was used for dispensing cells and applying test compounds. Nay late currents were evoked by the application of 300 nM ATX-II. INaL was evoked by depolarizing pulses to 0 mV for 200 ms from a non-inactivating holding potential (e.g., −120 mV) at a frequency of 0.1 Hz. INaL amplitude and stability were determined by analyzing the mean current amplitude over the final 20 ms of the test pulse. Following steady state block with exemplary compounds (e.g., as described herein), a Na^+ free solution containing an impermeant cation (e.g., Choline or NDMG) was added to confirm the identify of the sodium current.
# Results from this assay relating to percent inhibition of INaL at hNaV1.6 (measured using a procedure similar to described above but using HEK-293 cells expressing recombinant, human Nay 1.6 (h Nay 1.6) at 1 μM are summarized in Table 1 below. In this table, “A” indicates inhibition of less than 30%; “B” indicates inhibition of between about 30% to about 70%; and “C” indicates inhibition of greater than 70%.
# T1 sequence (Q9UQD0 whole entry): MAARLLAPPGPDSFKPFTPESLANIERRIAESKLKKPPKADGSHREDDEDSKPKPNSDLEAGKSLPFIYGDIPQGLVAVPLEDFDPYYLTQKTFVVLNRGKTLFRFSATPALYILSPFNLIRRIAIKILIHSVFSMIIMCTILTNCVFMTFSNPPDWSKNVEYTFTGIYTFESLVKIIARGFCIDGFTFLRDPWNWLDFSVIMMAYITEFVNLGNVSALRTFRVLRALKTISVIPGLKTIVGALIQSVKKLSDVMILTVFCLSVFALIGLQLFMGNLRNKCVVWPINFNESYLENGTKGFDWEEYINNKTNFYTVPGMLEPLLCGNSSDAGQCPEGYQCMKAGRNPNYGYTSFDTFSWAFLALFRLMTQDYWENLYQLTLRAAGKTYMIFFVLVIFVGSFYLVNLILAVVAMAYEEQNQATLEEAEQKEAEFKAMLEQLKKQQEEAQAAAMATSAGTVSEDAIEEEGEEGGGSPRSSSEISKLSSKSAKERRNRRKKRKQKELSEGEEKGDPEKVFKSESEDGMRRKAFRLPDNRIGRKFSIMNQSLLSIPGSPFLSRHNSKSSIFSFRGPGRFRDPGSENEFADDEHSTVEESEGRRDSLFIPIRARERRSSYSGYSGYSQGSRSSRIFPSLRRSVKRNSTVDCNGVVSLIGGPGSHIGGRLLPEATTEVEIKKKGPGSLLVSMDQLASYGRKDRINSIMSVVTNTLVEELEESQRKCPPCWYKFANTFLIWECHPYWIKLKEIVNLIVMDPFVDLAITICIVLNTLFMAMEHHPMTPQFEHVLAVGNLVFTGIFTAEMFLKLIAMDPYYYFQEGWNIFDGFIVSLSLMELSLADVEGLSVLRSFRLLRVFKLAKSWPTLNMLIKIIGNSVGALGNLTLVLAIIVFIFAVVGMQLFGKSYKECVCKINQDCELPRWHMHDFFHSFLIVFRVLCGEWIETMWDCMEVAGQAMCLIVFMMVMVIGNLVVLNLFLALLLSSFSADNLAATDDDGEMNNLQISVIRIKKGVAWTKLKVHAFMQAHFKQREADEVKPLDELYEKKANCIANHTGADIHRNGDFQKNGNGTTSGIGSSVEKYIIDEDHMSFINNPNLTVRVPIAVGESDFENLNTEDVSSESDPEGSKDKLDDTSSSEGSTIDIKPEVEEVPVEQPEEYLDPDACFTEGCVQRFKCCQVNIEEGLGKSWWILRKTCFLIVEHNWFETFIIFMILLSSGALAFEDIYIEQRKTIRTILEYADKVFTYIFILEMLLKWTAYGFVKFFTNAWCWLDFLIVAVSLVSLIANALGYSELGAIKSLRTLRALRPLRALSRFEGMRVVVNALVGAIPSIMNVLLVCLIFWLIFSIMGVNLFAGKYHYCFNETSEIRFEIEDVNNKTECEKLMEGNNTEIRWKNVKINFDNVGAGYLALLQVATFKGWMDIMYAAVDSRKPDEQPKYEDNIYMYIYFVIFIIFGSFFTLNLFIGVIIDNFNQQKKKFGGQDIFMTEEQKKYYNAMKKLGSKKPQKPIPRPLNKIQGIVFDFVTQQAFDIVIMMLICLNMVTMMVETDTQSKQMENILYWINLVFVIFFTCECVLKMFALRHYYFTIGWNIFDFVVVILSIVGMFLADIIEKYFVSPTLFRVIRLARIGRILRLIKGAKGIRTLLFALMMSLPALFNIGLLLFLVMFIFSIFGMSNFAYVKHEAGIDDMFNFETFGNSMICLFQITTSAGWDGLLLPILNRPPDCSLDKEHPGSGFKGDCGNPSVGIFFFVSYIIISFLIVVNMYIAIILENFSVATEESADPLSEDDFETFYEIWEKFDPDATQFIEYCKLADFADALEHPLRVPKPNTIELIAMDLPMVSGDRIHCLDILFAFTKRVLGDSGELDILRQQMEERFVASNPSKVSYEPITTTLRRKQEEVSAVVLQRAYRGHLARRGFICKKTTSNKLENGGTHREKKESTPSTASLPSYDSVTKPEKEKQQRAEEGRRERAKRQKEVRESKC
row,SMILES,inhibition at 1 µM
1,Cc1nnn2ccc(-c3ccc(OC(F)(F)F)cc3)cc12 [Compound 7],> 70%
2,"C[C@@H](Oc1ncc(-c2ccn3nncc3c2)cc1F)C(F)(F)F [Compound 17, 5-[5-fluoro-6-[(1R)-2,2,2-trifluoro-1-methyl-ethoxy]-3-pyridyl]triazolo[1,5-a]pyridine]",> 70%
3,Cc1cc(OC(F)(F)F)ccc1-c1cc(C)n2nncc2c1 [Compound 5],> 70%
4,"Cc1cc(OC(F)(F)F)ccc1-c1ccn2nncc2c1 [Compound 1, 5-[2-methyl-4-(trifluoromethoxy)phenyl]triazolo[1,5-a]pyridine]",30 to 70%
5,Fc1cc(-c2ccn3nncc3c2)cnc1OCC(F)(F)F [Compound 10],30 to 70%
6,Cc1nnn2ccc(-c3cnc(OC4CC(F)(F)C4)c(F)c3)cc12 [Compound 12],> 70%
7,C[C@@H](Oc1ncc(-c2ccn3nnc(C(F)F)c3c2)cc1F)C(F)(F)F [Compound 37],> 70%
8,FC(F)(F)Oc1ccc(-c2ccn3nncc3c2)cc1 [Compound 9],> 70%
9,"FC1(F)C[C@H]1c1ccc(-c2ccn3nncc3c2)cc1 (single isomer, unassigned) [Compound 23-2]",> 70%
10,Cc1cc(OC(F)(F)F)ccc1-c1ccn2nnc(C(F)(F)F)c2c1 [Compound 4],> 70%
11,COCc1cc(OC(F)(F)F)ccc1-c1ccn2nncc2c1 [Compound 2],> 70%
12,COCc1nnn2ccc(-c3ccc(OC(F)(F)F)cc3C)cc12 [Compound 13],> 70%
13,FC(F)(F)COc1ccc(-c2ccn3nncc3c2)cn1 [Compound 15],> 70%
14,Cc1nnn2ccc(-c3cnc(OCC(F)(F)F)c(F)c3)cc12 [Compound 8],30 to 70%
15,Cc1cc(OC(F)(F)F)ccc1-c1ccn2nnc(C)c2c1 [Compound 3],> 70%
16,"FC1(F)C[C@@H]1c1ccc(-c2ccn3nncc3c2)cc1 (single isomer, unassigned) [Compound 23-1]",30 to 70%
17,Fc1cc(-c2ccn3nncc3c2)cnc1OC1CC(F)(F)C1 [Compound 11],> 70%
18,Cc1nnn2ccc(-c3ccc(C4(C#N)CC4)cc3)cc12 [Compound 6],30 to 70%
19,COCc1cc(-c2ccn3nncc3c2)ccc1OC(F)(F)F [Compound 16],30 to 70%
20,FC(F)Oc1ccc(-c2ccn3nncc3c2)cc1 [Compound 14],30 to 70%

# Second part, the molecule after the results:
row,inhibition at 1 µM,SMILES
1,> 70%,[2H]c1nnn2ccc(-c3cnc(OCC(F)(F)F)c(F)c3)cc12 [Compound 34]
2,> 70%,"C[C@H](Oc1ncc(-c2ccn3nncc3c2)cc1F)C(F)(F)F [Compound 18, 5-[5-fluoro-6-[(15)-2,2,2-trifluoro-1-methyl-ethoxy]-3-pyridyl]triazolo[1,5-a]pyridine]"
3,> 70%,C[C@H](Oc1ncc(-c2ccn3nnc(C(F)(F)F)c3c2)cc1F)C(F)(F)F [Compound 31]
4,> 70%,C[C@H](Oc1ncc(-c2ccn3nnc(C(F)F)c3c2)cc1F)C(F)(F)F [Compound 38]
5,> 70%,[2H]c1nnn2ccc(-c3cnc(O[C@@H](C)C(F)(F)F)c(F)c3)cc12 [Compound 33]
6,> 70%,[2H]C([2H])([2H])OCc1nnn2ccc(-c3cnc(OC(C)(C)C(F)(F)F)c(F)c3)cc12 [Compound 40]
7,> 70%,COCc1nnn2ccc(-c3cnc(OC4(C(F)(F)F)CCC4)c(F)c3)cc12 [Compound 29]
8,30 to 70%,COCc1nnn2ccc(-c3cnc(OCC(F)(F)F)c(F)c3)cc12 [Compound 20]
9,> 70%,COc1cc(OC(F)(F)F)ccc1-c1ccn2nnc(C)c2c1 [Compound 43]
10,> 70%,CC(C)(Oc1ncc(-c2ccn3nncc3c2)cc1F)C(F)(F)F [Compound 24]
11,> 70%,[2H]C([2H])([2H])c1nnn2ccc(-c3cnc(OC(C)(C)C(F)(F)F)c(F)c3)cc12 [Compound 42]
12,> 70%,Cc1nnn2ccc(-c3cnc(OC(C)(C)C(F)(F)F)c(F)c3)cc12 [Compound 25]
13,30 to 70%,Cc1cc(-c2cnc(OCC(F)(F)F)c(F)c2)cc2cnnn12 [Compound 46]
14,> 70%,CC(C)(Oc1ncc(-c2ccn3nnc(C(F)F)c3c2)cc1F)C(F)(F)F [Compound 39]
15,> 70%,[2H]c1nnn2ccc(-c3cnc(OC4(C(F)(F)F)CCC4)c(F)c3)cc12 [Compound 36]
16,30 to 70%,Cc1cc(-c2cnc(O[C@H](C)C(F)(F)F)c(F)c2)cc2cnnn12 [Compound 44]
17,> 70%,[2H]c1nnn2ccc(-c3cnc(OC(C)(C)C(F)(F)F)c(F)c3)cc12 [Compound 35]
18,> 70%,[2H]C([2H])(OC)c1nnn2ccc(-c3cnc(OC(C)(C)C(F)(F)F)c(F)c3)cc12 [Compound 41]
19,> 70%,Cc1nnn2ccc(-c3cnc(O[C@@H](C)C(F)(F)F)c(F)c3)cc12 [Compound 22]
20,> 70%,COCc1nnn2ccc(-c3cnc(OC(C)(C)C(F)(F)F)c(F)c3)cc12 [Compound 26]
21,> 70%,Cc1nnn2ccc(-c3cnc(O[C@H](C)C(F)(F)F)c(F)c3)cc12 [Compound 21]
22,> 70%,COCc1nnn2ccc(-c3cnc(O[C@@H](C)C(F)(F)F)c(F)c3)cc12 [Compound 27]
23,> 70%,[2H]c1nnn2ccc(-c3cnc(O[C@H](C)C(F)(F)F)c(F)c3)cc12 [Compound 32]
24,> 70%,C[C@@H](Oc1ncc(-c2ccn3nnc(C(F)(F)F)c3c2)cc1F)C(F)(F)F [Compound 30]
25,> 70%,Cc1cc(-c2cnc(O[C@@H](C)C(F)(F)F)c(F)c2)cc2cnnn12 [Compound 45]
